# Test results from ChEMBL document CHEMBL2150879, “Novel indolethylbenzamides for the treatment of tauopathies: patent highlight” (ACS Med Chem Lett, 2012).
# pEC50: −log10 of the molar value.
# Assay: Inhibition of Tau P301L mutant-mediated cytotoxicity in human M17 cells by LDH assay
# Format: cell-based
row,Structure (SMILES),pEC50
1,O=C(NCCc1c[nH]c2ccc(Cl)cc12)c1cccc(Nc2ccccc2)c1,7.03
2,O=C(NCCc1c[nH]c2ccc(Cl)cc12)c1cccc(Cc2cncc(F)c2)c1,7.05
3,O=C(NCCc1c[nH]c2ccc(Cl)cc12)c1ccc(Cc2cccc(Cl)c2)cc1,8.15
4,O=C(NCCc1c[nH]c2ccc(F)cc12)c1ccc(Cn2ccnc2)cc1,6.31
5,N#Cc1cccc(Cc2ccc(C(=O)NCCc3c[nH]c4ccc(Cl)cc34)cc2)c1,7.85
6,O=C(NCCc1c[nH]c2ccc(Cl)cc12)c1ccc(Cc2cccc(F)c2)cc1,7.89
7,COc1ccc(Cc2ccc(C(=O)NCCc3c[nH]c4ccc(Cl)cc34)cc2)cc1,6.83
8,N#Cc1ccc(Cc2ccc(C(=O)NCCc3c[nH]c4ccc(Cl)cc34)cc2)cc1,7.80
9,O=C(NCCc1c[nH]c2ccc(Cl)cc12)c1cccc(Cc2ccccc2)c1,7.11
